Assay results published in US10189809B2, “SGC stimulators” (Ironwood Pharmaceuticals, Inc., priority 2010, dated 2019).
Like-named read-outs stand apart in the source and are kept apart here.

Key:
[1] = target: soluble guanylate cyclase (sGC) (Homo sapiens (Human), UniProt Q02108+Q02153); experiment: sGC-HEK-cGMP assay run with SNP incubation (HEK WC assay); type: cell-based; conditions: for EC50: in the presence of 10 uM SNP
Experimental: Human embryonic kidney cells (HEK293), endogenously expressing soluble guanylate cyclase (sGC), were used to evaluate the activity of test compounds. Compounds stimulating the sGC receptor should cause an increase in the intracellular concentration of cGMP. HEK 293 cells were seeded in Dulbecco's Modification of Eagle's Medium supplemented with fetal bovine serum (10% final) and L-glutamine (2 mM final) in a 200 μL volume at a density of 1×10^5 cells/well in a poly-D-lysine coated 96 well flat bottom plate and grown overnight at 37° C. Medium was aspirated and cells were washed with 1× Hank's Buffered Saline Salt Solution (200 μL). Cells were then incubated for 15 minutes at 37° C. with 0.5 mM 3-isobutyl-1-methylxanthine (200 μL). Test article and sodium nitroprusside were then added to the assay mixture (2 μL each) and incubated at 37° C. for 10 minutes. After the 10 minute incubation, the assay mixture was aspirated and 0.1M HCl (200 μL) was added to the cells. The plate was incubated at 4° C. for 30 minutes in the 0.1M HCl to stop the reaction and lysed the cells. The plates were then centrifuged at 1,200 g for 5 minutes at room temperature. Supernatants were collected and transferred to a new flat bottom 96 well plate for analysis. Vehicle controls were carried out using DMSO (1%). […] Samples were diluted with an equal volume of 1 M Ammonium Acetate (pH 7) to neutralize samples for better chromatography. […] EC50 values were calculated from concentration-response curves generated with GraphPad Prism Software.

[2] = target: Human soluble guanylate cyclase enzyme (hsGC) (Homo sapiens (Human), UniProt Q02108+Q02153); experiment: Purified human sGC enzyme activity assay; type: biochemical; conditions: without the addition of SNP; for sGC Enzyme (fold increase at 10 μM): 10 μM compound; for sGC Enzyme (fold increase at 30 μM): 30 μM compound
Experimental: Human soluble guanylate cyclase enzyme (hsGC) obtained from Enzo Inc. (P/N: ALX-201-177) was used to evaluate the activity of test compounds. The assay reactions contained 0.1 M Tris (pH 8.0), 0.5 mg/mL BSA (pH 8.0), 2 mM DTT, 2 mM MgCl2, 300 μM GTP, 1 mM 3-isobutyl-1-methylxanthine (IBMX) and 5 ng human soluble guanylate cyclase enzyme. Test compounds in DMSO were then added (2 μL, 10 or 30 μM final concentration) and incubated (200 μL, 96-well plate format) at 37° C. for 30 minutes. The controls were carried out using 2 μL DMSO. After the 30 minute incubation, the reaction was stopped with the addition of 200 μL of cold methanol. The plate was then centrifuged at 3,200 rpm for 10 minutes at room temperature. Supernatants (200 μL) were collected and transferred to a new 96 well plate for analysis.
An 8 point cGMP (Sigma-Aldrich P/N: G6129) standard curve was prepared in assay buffer ranging from 0.156-20 μM. Samples for the cGMP standard curve were then diluted with an equal volume of methanol resulting in final cGMP concentrations of 0.078-10 μM.
The cGMP standard curve was generated using GraphPad Prism Software.
Calculations: Specific Activity was determined by the amount of cGMP formed (nmoles) per mg of sGC per min. Enzyme “fold-change” was calculated by dividing Specific Activity for test compounds by Specific Activity of DMSO controls.

[3] = read-out: HEK WC Assay (% Emax at 1 μM with 10 uM SNP)
[4] = read-out: HEK WC Assay (% Emax at 10 μM with 10 uM SNP)
[5] = read-out: HEK WC Assay (% Emax at 30 μM with 10 uM SNP)

Human soluble guanylate cyclase enzyme (hsGC), sequence (Q02153 whole entry): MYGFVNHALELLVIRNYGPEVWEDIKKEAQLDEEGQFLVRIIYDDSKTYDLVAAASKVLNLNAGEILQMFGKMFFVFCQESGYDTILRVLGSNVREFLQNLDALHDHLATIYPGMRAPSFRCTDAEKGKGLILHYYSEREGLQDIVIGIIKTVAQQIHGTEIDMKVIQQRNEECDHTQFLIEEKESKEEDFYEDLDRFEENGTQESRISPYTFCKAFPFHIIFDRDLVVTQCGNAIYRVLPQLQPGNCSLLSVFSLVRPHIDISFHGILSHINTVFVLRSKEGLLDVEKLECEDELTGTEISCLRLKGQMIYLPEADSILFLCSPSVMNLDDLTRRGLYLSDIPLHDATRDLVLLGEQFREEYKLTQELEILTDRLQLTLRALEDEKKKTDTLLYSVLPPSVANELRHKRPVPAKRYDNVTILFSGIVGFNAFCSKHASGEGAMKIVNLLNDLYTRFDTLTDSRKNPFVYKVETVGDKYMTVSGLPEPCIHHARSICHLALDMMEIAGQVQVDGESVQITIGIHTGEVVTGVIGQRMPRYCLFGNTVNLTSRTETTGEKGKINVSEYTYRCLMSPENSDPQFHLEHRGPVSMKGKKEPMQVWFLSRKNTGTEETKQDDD
Human soluble guanylate cyclase enzyme (hsGC), sequence (Q02108 whole entry): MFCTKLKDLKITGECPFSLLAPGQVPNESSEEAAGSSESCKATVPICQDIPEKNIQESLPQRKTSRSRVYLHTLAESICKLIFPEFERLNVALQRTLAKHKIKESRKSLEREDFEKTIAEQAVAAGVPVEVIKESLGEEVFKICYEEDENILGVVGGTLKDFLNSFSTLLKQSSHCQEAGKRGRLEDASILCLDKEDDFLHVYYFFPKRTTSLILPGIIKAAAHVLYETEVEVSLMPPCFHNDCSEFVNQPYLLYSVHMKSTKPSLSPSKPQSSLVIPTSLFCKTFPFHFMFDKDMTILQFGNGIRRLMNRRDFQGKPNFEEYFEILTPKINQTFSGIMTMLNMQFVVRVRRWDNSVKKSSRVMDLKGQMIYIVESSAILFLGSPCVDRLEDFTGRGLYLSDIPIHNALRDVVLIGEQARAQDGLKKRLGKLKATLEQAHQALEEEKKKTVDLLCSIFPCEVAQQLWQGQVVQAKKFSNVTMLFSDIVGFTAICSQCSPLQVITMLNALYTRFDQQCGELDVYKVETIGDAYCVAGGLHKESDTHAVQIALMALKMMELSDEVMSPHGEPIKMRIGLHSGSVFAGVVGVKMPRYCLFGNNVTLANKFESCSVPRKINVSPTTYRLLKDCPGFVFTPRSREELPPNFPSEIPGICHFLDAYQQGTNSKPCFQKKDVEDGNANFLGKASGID
soluble guanylate cyclase (sGC), sequence (Q02153 whole entry): as the sequence (Q02153 whole entry) above
soluble guanylate cyclase (sGC), sequence (Q02108 whole entry): as the sequence (Q02108 whole entry) above

| SMILES | EC50 [1] [µM] | Emax [1, 3] [%] | Emax [1, 4] [%] | Emax [1, 5] [%] | sGC Enzyme (fold increase at 10 μM) [2] | sGC Enzyme (fold increase at 30 μM) [2] | Emax at 10 µM ([1]; read-out: HEK WC Assay (% Emax at 10 μM/with 10 uM SNP)) [%] | Emax at 30 µM ([1]; read-out: HEK WC Assay (% Emax at 30 μM/with 10 uM SNP)) [%] |
| --- | --- | --- | --- | --- | --- | --- | --- | --- |
| Nc1cnc(-c2cc(-c3ccon3)n(Cc3ccccc3F)n2)nc1 [Compound I-262] | < 20 | 20 to 40 | 60 to 80 | 60 to 80 | – | – | – | – |
| CC(C)(O)c1cnc(-c2cc(-c3ncco3)n(Cc3ccccc3F)n2)nc1N [Compound I-146] | – | – | 40 to 60 | 40 to 60 | – | – | – | – |
| Nc1nc(-c2cc(-c3ccon3)n(Cc3ccccc3F)n2)ncc1N1Cc2ccccc2C1=O [Compound I-259] | < 20 | 20 to 40 | 60 to 80 | 60 to 80 | – | – | – | – |
| C=CC(C)(C)C(=O)Nc1cnc(-c2cc(-c3ccon3)n(Cc3ccccc3F)n2)nc1N [Compound I-246] | < 20 | 60 to 80 | 100 to 120 | 100 to 120 | – | – | – | – |
| COc1cccc(-c2cc(-c3ccccn3)n(Cc3ccccc3F)n2)n1 [Compound I-78] | – | – | – | – | A (A = no increase to <2 fold increase) | A (A = no increase to <2 fold increase) | – | – |
| Oc1nc(-c2cc(-c3ccon3)n(Cc3ccccc3F)n2)ncc1Cl [Compound I-266] | < 20 | 20 to 40 | 60 to 80 | 60 to 80 | – | – | – | – |
| CC(C)(CO)C(=O)Nc1cnc(-c2cc(-c3ccon3)n(Cc3ccccc3F)n2)nc1N [Compound I-265] | < 20 | 40 to 60 | 60 to 80 | 80 to 100 | – | – | – | – |
| CC(C)(C(=O)Nc1cnc(-c2cc(-c3ccon3)n(Cc3ccccc3F)n2)nc1N)n1cncn1 [Compound I-270] | < 20 | 10 to 20 | 40 to 60 | 60 to 80 | – | – | – | – |
| Fc1ccccc1Cn1nc(-c2ccccn2)cc1-n1cccn1 [Compound I-286] | – | – | 0 to 10 | 10 to 20 | – | – | – | – |
| CN(C)C(=O)Oc1cnc(-c2cc(-c3ccon3)n(Cc3ccccc3F)n2)nc1 [Compound I-274] | – | 20 to 40 | 60 to 80 | 60 to 80 | – | – | – | – |
| Oc1cc(O)nc(-c2cc(-c3ccon3)n(Cc3ccccc3F)n2)n1 [Compound I-261] | 300 to 600 | 0 to 10 | 0 to 10 | 0 to 10 | – | – | – | – |
| CC(C)(C)S(=O)(=O)Nc1cnc(-c2cc(-c3ccon3)n(Cc3ccccc3F)n2)nc1N [Compound I-251] | 20 to 40 | 10 to 20 | 20 to 40 | 20 to 40 | – | – | – | – |
| O=S(=O)(c1cc(Cl)ccc1Cl)c1cnc(-c2cc(-c3ccon3)n(Cc3ccccc3F)n2)nc1O [Compound I-242] | 60 to 100 | 10 to 20 | 20 to 40 | 20 to 40 | – | – | – | – |
| O=[N+]([O-])c1c(O)nc(-c2cc(-c3ccon3)n(Cc3ccccc3F)n2)nc1O [Compound I-282] | 900 to 1200 | 0 to 10 | 0 to 10 | 0 to 10 | – | – | – | – |
| CCC(C)(C)C(=O)Nc1cnc(-c2cc(-c3ccon3)n(Cc3ccccc3F)n2)nc1N [Compound I-247] | < 20 | 20 to 40 | 60 to 80 | 80 to 100 | – | – | – | – |
| CC(C)(C)[S+]([O-])Nc1cnc(-c2cc(-c3ccon3)n(Cc3ccccc3F)n2)nc1N[S+]([O-])C(C)(C)C (stereo not drawn) [Compound I-250] | 100 to 300 | 0 to 10 | 10 to 20 | 10 to 20 | – | – | – | – |
| CS(=O)(=O)Nc1cnc(-c2cc(-c3ccon3)n(Cc3ccccc3F)n2)nc1N [Compound I-145] | – | – | 20 to 40 | 20 to 40 | – | – | – | – |
| Nc1nc(-c2cc(-c3ccon3)n(Cc3ccccc3F)n2)ncc1NC(=O)C1CCCCC1 [Compound I-157] | – | – | 100 to 120 | 80 to 100 | – | – | – | – |
| COc1ccc(-c2cc(-c3ncccn3)nn2Cc2ccccc2F)cn1 [Compound I-77, 2-(1-(2-fluorobenzyl)-5-(6-methoxypyridin-3-yl)-1H-pyrazol-3-yl)pyrimidine] | – | – | – | – | A (A = no increase to <2 fold increase) | A (A = no increase to <2 fold increase) | – | – |

| SMILES | EC50 [1] [µM] | Emax [1, 3] [%] | Emax [1, 4] [%] | Emax [1, 5] [%] | sGC Enzyme (fold increase at 10 μM) [2] | sGC Enzyme (fold increase at 30 μM) [2] | Emax at 10 µM ([1]; read-out: HEK WC Assay (% Emax at 10 μM/with 10 uM SNP)) [%] | Emax at 30 µM ([1]; read-out: HEK WC Assay (% Emax at 30 μM/with 10 uM SNP)) [%] |
| --- | --- | --- | --- | --- | --- | --- | --- | --- |
| Nc1ccnc(-c2cc(-c3ccco3)n(Cc3ccccc3F)n2)n1 [Compound I-284] | – | – | 60 to 80 | 60 to 80 | – | – | – | – |
| CC(C)(C)C(=O)Nc1cnc(-c2cc(-c3ccon3)n(Cc3ccccc3F)n2)nc1 [Compound I-264] | 300 to 600 | 20 to 40 | 40 to 60 | 0 to 10 | – | – | – | – |
| N#Cc1cnc(-c2cc(-c3ncco3)n(Cc3ccccc3F)n2)nc1O [Compound I-155] | < 20 | – | 40 to 60 | 60 to 80 | – | – | – | – |
| CC(C)(C)OC(=O)n1c(=O)[nH]c2nc(-c3cc(-c4ccon4)n(Cc4ccccc4F)n3)ncc21 [Compound I-312] | 40 to 60 | 20 to 40 | 20 to 40 | 20 to 40 | – | – | – | – |
| CC(C)(CCl)C(=O)Nc1cnc(-c2cc(-c3ccon3)n(Cc3ccccc3F)n2)nc1N [Compound I-268] | < 20 | 40 to 60 | 100 to 120 | 80 to 100 | – | – | – | – |
| CS(=O)(=O)c1ccc(-c2cc(-c3ccccn3)nn2Cc2ccccc2F)nc1 [Compound I-73] | – | – | – | – | – | – | 0 to 10 | 0 to 10 |
| O=c1cc(O)oc2nc(-c3cc(-c4ccon4)n(Cc4ccccc4F)n3)nc(O)c12 [Compound I-248] | 600 to 900 | 0 to 10 | 0 to 10 | 0 to 10 | – | – | – | – |
| C=C(C)C(=O)Nc1cnc(-c2cc(-c3ccon3)n(Cc3ccccc3F)n2)nc1N [Compound I-258] | < 20 | 40 to 60 | 60 to 80 | 60 to 80 | – | – | – | – |
| Fc1ccccc1Cn1nc(-c2nc(Cl)cc(-c3cccnc3)n2)cc1-c1ccon1 [Compound I-301] | < 20 | – | 40 to 60 | 60 to 80 | – | – | – | – |
| Fc1ccccc1Cn1nc(-c2ncc(F)c(S)n2)cc1-c1ccon1 [Compound I-267] | – | 20 to 40 | 60 to 80 | 80 to 100 | – | – | – | – |
| CCCC(F)(F)C(=O)Nc1cnc(-c2cc(-c3ccon3)n(Cc3ccccc3F)n2)nc1N [Compound I-252] | < 20 | 40 to 60 | 40 to 60 | 60 to 80 | – | – | – | – |
| Fc1ccccc1Cn1nc(-c2nc(Cl)cc(C(F)(F)F)n2)cc1-c1ccon1 [Compound I-273] | – | – | 20 to 40 | 20 to 40 | – | – | – | – |
| O=S(=O)(c1ccccc1)c1cnc(-c2cc(-c3ncco3)n(Cc3ccccc3F)n2)nc1O [Compound I-271] | < 20 | 40 to 60 | 60 to 80 | 80 to 100 | – | – | – | – |
| CN(C)/C=N/c1cnc(-c2cc(-c3ccon3)n(Cc3ccccc3F)n2)nc1 [Compound I-249, N′-(2-(1-(2-fluorobenzyl)-5-(isoxazol-3-yl)-1H-pyrazol-3-yl)pyrimidin-5-yl)-N,N-dimethylformimidamide] | < 20 | 20 to 40 | 40 to 60 | 60 to 80 | – | – | – | – |
| [2H]C([2H])([2H])C(=O)Nc1cnc(-c2cc(-c3ccon3)n(Cc3ccccc3F)n2)nc1N [Compound I-263] | < 20 | 40 to 60 | 100 to 120 | 100 to 120 | – | – | – | – |
| CC1(C(=O)Nc2cnc(-c3cc(-c4ccon4)n(Cc4ccccc4F)n3)nc2N)CC1(Cl)Cl (stereo not drawn) [Compound I-260] | < 20 | 80 to 100 | 100 to 120 | 80 to 100 | – | – | – | – |
| Nc1nc(-c2cc(-c3ncco3)n(Cc3ccccc3F)n2)ncc1N=C(c1ccccc1)c1ccccc1 [Compound I-269] | 100 to 300 | 0 to 10 | 0 to 10 | 10 to 20 | – | – | – | – |
| CC(C)(Oc1ccccc1)C(=O)Nc1cnc(-c2cc(-c3ccon3)n(Cc3ccccc3F)n2)nc1N [Compound I-230] | 60 to 100 | 10 to 20 | 20 to 40 | 20 to 40 | – | – | – | – |
